Measurements from patent publication US6521600B1, “Compound, WF002, production thereof and use thereof” (Fujisawa Pharmaceutical Co., Ltd., priority 1998, dated 2003).

Key:
[1] = system: Cryptococcus neoformans YC203; test: Antimicrobial activity, serial broth dilution method (MEC); type: cell-based; conditions: yeast nitrogen base dextrose medium, 37° C., 48 hours, 5% CO2, microscopic observation
Protocol: (§1) Test 1 (Antimicrobial Activity) Antimicrobial activity of WF002 was determined by a serial broth dilution method using 96-well microtiter plate in 100 μl of yeast nitrogen base dextrose medium. The inoculum was adjusted to 1×10^5 colony forming units/ml. Candida albicans and Aspergillus fumigatus were cultured at 37° C. for 24 hours and Cryptococcus neoformans was cultured at 37° C. for 48 hours in 5% CO2 incubator. After incubation, the growth inhibition of microorganism in each well was determined by microscopic observation. The results were shown as MEC (minimum effective concentration: μg/ml) value (Table 2).

[2] = system: Aspergillus fumigatus FP1305; test: as above; type: cell-based; conditions: yeast nitrogen base dextrose medium, 37° C., 24 hours, microscopic observation
Protocol: as §1

Candida albicans FP633 = test: as above; type: cell-based; conditions: yeast nitrogen base dextrose medium, 37° C., 24 hours, microscopic observation
Protocol: as §1

Solubility in solvents = type: physicochemical

SMILES: CC(=O)OC1CC2(C)C(CCC3(C)C2CCC2=C4C(=O)CC5C(C)COC(O)C45CCC23C)C(C)(C)C1OC1OC(CO)C(O)C(O)C1O (centres unmarked) [WF002]
- MEC (minimum effective concentration) [1]: 50 µg/mL
- MEC (minimum effective concentration) [2]: 0.04 µg/mL
- MEC (minimum effective concentration) (Candida albicans FP633): 6.25 µg/mL
- Solubility (Solubility in solvents; methanol, ethyl acetate, dimethylsulfoxide): Soluble
- Solubility (Solubility in solvents; water, n-hexane): Insoluble
